From patent publication US4122184A, “Benzimidazole insecticides” (priority 1977, dated 1978)

Assays:
Fall Webworm = experiment: Field trial, stomach poison test; assay type: in vivo
Method in brief: (§1)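 Treated foliage (dipped, or sprayed at 10 psi, then dried) is offered to counted insects in dishes. Scoring of mortality uses a 0–9 scale at three time points up to 72 h.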

Asparagus Beetles Larvae = experiment: Field trial, stomach poison test; assay type: in vivo
Method in brief: as §1

Differential Grasshopper = experiment: Field trial (first summer), contact; assay type: in vivo
Meadow Grasshopper = experiment: Field trial (first summer), contact; assay type: in vivo; conditions: 125 ppm
Mexican Bean Beetle = experiment: Field trial (first summer), topical; assay type: in vivo, Epilachna varivestis
Method: In a variation of the above test, 1 microliter of a test solution containing a predetermined number of micrograms of benzimidazole was applied directly to larvae or adult insects.
During the previous summer similar field trials were conducted employing the same tests as heretofore but with some additional species of insects not included in the later tests. The results listed below are for tests in which an insect mortality was established by a given application route and at a given concentration in a particular test. The same 0 - 9 scoring system is used as is the designation of compounds by alphabetical symbols.

Zebra Caterpillar = experiment: Field trial (first summer), stomach; assay type: in vivo; conditions: 500 ppm
Tussock Moth = experiment: Field trial (first summer), stomach; assay type: in vivo; conditions: 750 ppm
Elm Leaf Beetle = experiment: Field trial, contact poison test; assay type: in vivo
Method in brief: (§2)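 Each infested plant sits in a water-filled bottle to prevent wilting, and the test compound is then atomized onto it at 10 psi at various concentrations. Falling dead insects are collected, and mortality is rated 0 (0-10%) to 9 (91-100%) at up to 72 h.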

Eastern Tent Caterpillar = experiment: Field trial, contact poison test; assay type: in vivo
Method in brief: as §2

Walnut Caterpillar = experiment: Field trial, contact poison test; assay type: in vivo
Method in brief: as §2

Armyworm, P. Unipuncta = experiment: Field trial, contact poison test; assay type: in vivo
Method in brief: as §2

[1] = system: Two-Spotted Spider Mite (2-SSM); experiment: Miticide test, acute mortality, foliar spray; assay type: in vivo, Tetranychus urticae
Method: Each 5 mg. sample of technical compound preweighed at Greenfield was dissolved in 2.5 ml. of acetone and diluted with 247.5 ml. of water containing a combination of […]
(§3) The treated cuttings were stored in the greenhouse for 24 hours before evaluation under a binocular disecting microscope in the laboratory. In evaluating the results of the miticide test, each treated cutting was removed from the test tube, observed for live and dead mites at 14 × magnification, and returned immediately to the test tube. A scale of 0-9 was used as before.
The test employing two-spotted spider mites was conducted in similar fashion except that the mites were maintained on squash seedlings or squash cuttings.

Citrus Rust Mite (CRM) = experiment: Miticide test, acute mortality, foliar spray; assay type: in vivo
Method: Citrus cuttings were obtained and prepared for testing within 24 hours prior to inoculation with citrus rust mites. To prepare the cuttings, terminals of branches 12 to 14 inches in length were cut from temple orange trees, immediately placed in tap water and taken into the laboratory. Uniform hardwood cuttings, 3 to 4 inches in length, were cut from the branches, all but one hardened leaf was removed from the cuttings, and the remaining leaf was wiped clean with a cotton pad soaked in 10% ethanol solution. Each cutting was immediately placed in tap water in a test tube with the closed leaf extending out of the test tube. Then, a ring of melted lanolin was applied around the petiole to prevent migration of mites from the leaf. One cutting was used for each replicate.
When the leaves were dry immediately after cleaning, citrus rust mites were transferred to the test leaves by cutting a heavily infested colony leaf (from a source colony maintained on citrus seedlings) into 20 to 22 sections (approximately 0.25 by 0.5 inches in size) and using forceps to place 1 section on each leaf cutting. As the section became desiccated the mites moved to the whole leaf and in 20 hours the sections were removed from the leaves for treatment application.
Treatments were applied within 24 hours after inoculation by removing the cuttings from the test tube and submerging the leaves in the treatment solution for 5 seconds by hand and immediately returning the cutting to the test tube. […]
as §3

Mosquito Larvae = experiment: Mosquito larvae test (dip test); assay type: in vivo, Aedes aegypti; conditions: 48 h
Method: Aedes aegypti larvae 5 days old are allowed to feed on fresh food for at least 3 hours previous to being placed on test. Larvae are then removed from the rearing pans by pouring on a 20 mesh screen, washing with deionized water, and pooling in a 6-inch white enameled sauce pan.
Twenty larvae are placed in a 1 oz. paper cup containing 25 ml. of deionized water.
Test chemicals are dissolved in a suitable solvent and pipetted under the surface of 225 ml. of deionized water in one pint wide-mouthed Mason jar test containers and stirred. A cup containing 20 larvae in 25 ml. of water is then added. […]
Results are determined 48 hours later by counting the dead and moribund larvae. […] Moribund larvae are those that are capable of limited, or poorly coordinated, locomotion in a sluggish manner.
Live larvae respond normally and actively.

Compound | insect mortality rating (Meadow Grasshopper) | insect mortality rating (Zebra Caterpillar) | insect mortality rating (Tussock Moth) | average mortality rating (Elm Leaf Beetle; 250 ppm) | average mortality rating (Elm Leaf Beetle; 500 ppm) | average mortality rating (Elm Leaf Beetle; 1000 ppm) | average mortality rating (Eastern Tent Caterpillar; 50 ppm) | average mortality rating (Eastern Tent Caterpillar; 100 ppm) | average mortality rating (Eastern Tent Caterpillar; 250 ppm) | average mortality rating (Eastern Tent Caterpillar; 500 ppm) | average mortality rating (Walnut Caterpillar; 25 ppm) | average mortality rating (Walnut Caterpillar; 50 ppm) | average mortality rating (Walnut Caterpillar; 100 ppm) | average mortality rating (Walnut Caterpillar; 250 ppm) | average mortality rating (Armyworm, P. Unipuncta; 125 ppm) | average mortality rating (Armyworm, P. Unipuncta; 250 ppm) | average mortality rating (Armyworm, P. Unipuncta; 500 ppm) | acute mortality rating ([1]; 6.25 ppm) | acute mortality rating ([1]; 12.5 ppm) | acute mortality rating ([1]; 25 ppm) | also measured
O=[N+]([O-])c1cc(C(F)(F)F)cc2nc(C(F)(F)F)[nH]c12 [A, 2,6-bis(trifluoromethyl)-4-nitrobenzimidazole] | 9 (91-100 percent mortality) | 7 | 9 (91-100 percent mortality) | 0 (0-10 percent) | 7 | 9 (91-100 percent mortality) | 0 (0-10 percent) | 3 | 5 | 5 | 1 | 1 | 1 | 7 | 0 (0-10 percent) | 1 | 3 | – | – | – | average mortality rating (Fall Webworm; 250 ppm): 9 (91-100 percent mortality); average mortality rating (Fall Webworm; 500 ppm): 0 (0-10 percent); average mortality rating (Fall Webworm; 750 ppm): 0 (0-10 percent); average mortality rating (Fall Webworm; 1000 ppm): 0 (0-10 percent); average mortality rating (Asparagus Beetles Larvae; 5 ppm): 3; average mortality rating (Asparagus Beetles Larvae; 10 ppm): 7; average mortality rating (Asparagus Beetles Larvae; 25 ppm): 7; insect mortality rating (Differential Grasshopper; 125 ppm): 9 (91-100 percent mortality); insect mortality rating (Mexican Bean Beetle; .25 μg/μl): 9 (91-100 percent mortality)
CCCCCCOC(=O)n1c(C(F)(F)F)nc2c([N+](=O)[O-])cc(C(F)(F)F)cc21 [E, n-hexyl 2,6-bis(trifluoromethyl)-4-nitro-1-benzimidazolecarboxylate] | 9 (91-100 percent mortality) | 5 | 5 | – | – | – | – | – | – | – | – | – | – | – | – | – | – | 3 | 2 | 5 | insect mortality rating (Differential Grasshopper; 250 ppm): 9 (91-100 percent mortality); insect mortality rating (Mexican Bean Beetle; .0625 μg/μl): 9 (91-100 percent mortality); acute mortality rating ([1]; 50 ppm): 9 (91-100 percent mortality); acute mortality rating ([1]; 100 ppm): 9 (91-100 percent mortality); acute mortality rating (Citrus Rust Mite (CRM); 6.25 ppm, after 48 hours): 4; acute mortality rating (Citrus Rust Mite (CRM); 12.5 ppm, after 48 hours): 8; acute mortality rating (Citrus Rust Mite (CRM); 25 ppm, after 48 hours): 9 (91-100 percent mortality); acute mortality rating (Citrus Rust Mite (CRM); 50 ppm, after 48 hours): 9 (91-100 percent mortality); acute mortality rating (Citrus Rust Mite (CRM); 100 ppm, after 48 hours): 9 (91-100 percent mortality); average mortality rating (Mosquito Larvae; 0.010 ppm): 0 (0-10%); average mortality rating (Mosquito Larvae; 0.025 ppm): 0 (0-10%); average mortality rating (Mosquito Larvae; 0.05 ppm): 1 (15-20%); average mortality rating (Mosquito Larvae; 0.1 ppm): 8 (85-90%)
CC(C)OC(=O)n1c(C(F)(F)F)nc2c([N+](=O)[O-])cc(C(F)(F)F)cc21 [I, isopropyl 2,6-bis(trifluoromethyl)-4-nitro-1-benzimidazolecarboxylate] | – | – | – | 1 | 1 | 1 | 0 (0-10 percent) | 1 | 3 | 6 | 0 (0-10 percent) | 1 | 2 | 3 | 0 (0-10 percent) | 0 (0-10 percent) | 0 (0-10 percent) | 3 | 2 | 8 | average mortality rating (Eastern Tent Caterpillar; 1000 ppm): 5; acute mortality rating ([1]; 50 ppm): 8; acute mortality rating ([1]; 100 ppm): 8; acute mortality rating (Citrus Rust Mite (CRM); 6.25 ppm, after 24 hours): 5; acute mortality rating (Citrus Rust Mite (CRM); 12.5 ppm, after 24 hours): 7; acute mortality rating (Citrus Rust Mite (CRM); 25 ppm, after 24 hours): 9 (91-100 percent mortality); acute mortality rating (Citrus Rust Mite (CRM); 50 ppm, after 24 hours): 9 (91-100 percent mortality); acute mortality rating (Citrus Rust Mite (CRM); 100 ppm, after 24 hours): 9 (91-100 percent mortality)
mixture of methyl 2,6-bis(trifluoromethyl)-4-nitro-1-benzimidazolecarboxylate and methyl 2,5-bis(trifluoromethyl)-7-nitro-1-benzimidazolecarboxylate | – | – | – | – | – | – | – | – | – | – | – | – | – | – | – | – | – | – | – | – | average mortality rating (Mosquito Larvae; 0.025 ppm): 0 (0-10%); average mortality rating (Mosquito Larvae; 0.05 ppm): 0 (0-10%); average mortality rating (Mosquito Larvae; 0.1 ppm): 4 (45-50%)
